Tested on: not given
Experiment: not given
Conditions: not given

For `Cc1nc2c(c(C)c(C)n2Cc2cc[nH]n2)c(-c2ccc(Cl)cc2)c1[C@H](OC(C)(C)C)C(=O)O` [Example 45, (S)-2-(1-((1H-pyrazol-3-yl)methyl)-4-(4-chlorophenyl)-2,3,6-trimethyl-1H-pyrrolo[2,3-b]pyridin-5-yl)-2-(tert-butoxy)acetic acid], the melting point was 140 °C.

With `Cc1nc2c(c(C)c(C)n2Cc2cn[nH]c2)c(-c2ccc(Cl)cc2)c1[C@H](OC(C)(C)C)C(=O)O` [Example 46, (S)-2-(1-((1H-Pyrazol-4-yl)methyl)-4-(4-chlorophenyl)-2,3,6-trimethyl-1H-pyrrolo[2,3-b]pyridin-5-yl)-2-(tert-butoxy)acetic acid] the melting point was greater than 230 °C.

Tested on: MT-4 cells
Experiment: Cytotoxicity test in MT-4 cells (MTT method)
Format: cell-based
Conditions: not given
Experimental: In order to look into the HIV-1 inhibition effects of the compound of the present invention, an in vitro test for HIV-1 inhibition effects was carried out as follows according to a known method (H. Tanaka et al., J. Med. Chem., 1991, 34, 349). MT-4 cells were used as host cells, and the degree of the compound of the present invention inhibiting the cytotoxicity of the virus-infected MT-4 cells was investigated.
First, MT-4 cells were diffused at a concentration of 1×10^4 cell/well to a culture medium, and HIV-1 was inoculated so that the concentration was 500 TCI50 (concentration at which 50% of the cell is infected)/well. Immediately after the inoculation, the cell dispersion was transferred in 100 μL each to a flat microtiter plate in which the sample of the compound of the present invention was placed. The sample was incubated for approximately for 4 to 5 days at […], and the virus suppression effect was determined using an MTT method. In addition, the cytotoxicity was also determined by measuring the survivability of the experimentally virus-infected cells using an MTT method. As a comparative compound, azidothymidine (AZT) and raltegravir were used.

For `Cc1nc2c(c(C)c(C)n2C)c(-c2cc(F)c3c(c2C)CCCO3)c1[C@H](OC(C)(C)C)C(=O)O` [Example 74, (S)-2-(Tert-butoxy)-2-((R)-4-(8-fluoro-5-methylchroman-6-yl)-1,2,3,6-tetramethyl-1H-pyrrolo[2,3-b]pyridin-5-yl)acetic acid], the “CC60 (μM) ** : concentration at 50% cell damage with respect to MT-4 cells” value was 23.92 µM.

Same assay, conditions: human

`Cc1nc2c(c(C)c(C)n2Cc2cc[nH]n2)c(-c2ccc(Cl)cc2)c1[C@H](OC(C)(C)C)C(=O)O` [Example 45, (S)-2-(1-((1H-pyrazol-3-yl)methyl)-4-(4-chlorophenyl)-2,3,6-trimethyl-1H-pyrrolo[2,3-b]pyridin-5-yl)-2-(tert-butoxy)acetic acid] and `Cc1nc2c(c(C)c(C)n2Cc2cn[nH]c2)c(-c2ccc(Cl)cc2)c1[C@H](OC(C)(C)C)C(=O)O` [Example 46, (S)-2-(1-((1H-Pyrazol-4-yl)methyl)-4-(4-chlorophenyl)-2,3,6-trimethyl-1H-pyrrolo[2,3-b]pyridin-5-yl)-2-(tert-butoxy)acetic acid] are within 1.5-fold of each other in “CC60 (μM) ** : concentration at 50% cell damage with respect to MT-4 cells” value: 19.33 µM for the first, 20.89 µM for the second.

`Cc1nc2c(c(C)c(C)n2CC2CC2(F)F)c(-c2ccc(Cl)cc2)c1[C@H](OC(C)(C)C)C(=O)O` (stereo partly drawn) [Example 69, (S)-2-(Tert-butoxy)-2-(4-(4-chlorophenyl)-1-((2,2-difluorocyclopropyl)methyl)-2,3,6-trimethyl-1H-pyrrolo[2,3-b]pyridin-5-yl)acetic acid] and `Cc1nc2c(c(C)c(C)n2CC2CC2)c(-c2ccc(Cl)cc2)c1C(OC(C)(C)C)C(=O)O` (stereo not shown) [Example 4, 2-Tert-butoxy-2-(4-(4-chlorophenyl)-1-(cyclopropylmethyl)-2,3,6-trimethyl-1H-pyrrolo[2,3-b]pyridin-5-yl)acetic acid] are within 1.5-fold of each other in “CC60 (μM) ** : concentration at 50% cell damage with respect to MT-4 cells” value: 17.55 µM for the first, 18 µM for the second.

`Cc1nc2c(c(C)c(C)n2Cc2ccsc2)c(-c2ccc(Cl)cc2)c1[C@H](OC(C)(C)C)C(=O)O` [Example 43, (S)-2-(Tert-butoxy)-2-(4-(4-chlorophenyl)-2,3,6-trimethyl-1-(thiophen-3-ylmethyl)-1H-pyrrolo[2,3-b]pyridin-5-yl)acetic acid] and `Cc1nc2c(c(C)c(C)n2Cc2cccs2)c(-c2ccc(Cl)cc2)c1[C@H](OC(C)(C)C)C(=O)O` [Example 42, (S)-2-(Tert-butoxy)-2-(4-(4-chlorophenyl)-2,3,6-trimethyl-1-(thiophen-2-ylmethyl)-1H-pyrrolo[2,3-b]pyridin-5-yl)acetic acid] are within 1.5-fold of each other in “CC60 (μM) ** : concentration at 50% cell damage with respect to MT-4 cells” value: 17.74 µM for the first, 20.54 µM for the second.

`Cc1nc2c(c(C)c(C)n2CCC(C)C)c(-c2ccc(Cl)cc2)c1C(OC(C)(C)C)C(=O)O` (stereo not shown) [Example 18, 2-Tert-butoxy-2-(4-(4-chlorophenyl)-1-isopentyl-2,3,6-trimethyl-1H-pyrrolo[2,3-b]pyridin-5-yl)acetic acid] and `CCn1c(C)c(C)c2c(-c3ccc(Cl)cc3)c([C@@H](OC(C)(C)C)C(=O)O)c(C)nc21` [Example 33, (R)-2-tert-butoxy-2-(4-(4-chlorophenyl)-1-(ethyl)-2,3,6-trimethyl-1H-pyrrolo[2,3-b]pyridin-5-yl)acetic acid] are within 1.5-fold of each other in “CC60 (μM) ** : concentration at 50% cell damage with respect to MT-4 cells” value: 17.32 µM for the first, 25.5 µM for the second.

First: Cc1nc2c(c(C)c(C)n2CCN2CCCC2=O)c(-c2ccc(Cl)cc2)c1[C@H](OC(C)(C)C)C(=O)O [Example 70, (S)-2-(Tert-butoxy)-2-(4-(4-chlorophenyl)-2,3,6-trimethyl-1-(2-(2-oxopyrrolidin-1-yl)ethyl)-1H-pyrrolo[2,3-b]pyridin-5-yl)acetic acid]
Second: Cc1nc2c(c(C)c(C)n2CCC#N)c(-c2ccc(Cl)cc2)c1C(OC(C)(C)C)C(=O)O (stereo not shown) [Example 23, 2-Tert-butoxy-2-(4-(4-chlorophenyl)-1-(2-cyanoethyl)-2,3,6-trimethyl-1H-pyrrolo[2,3-b]pyridin-5-yl)acetic acid]
The “CC60 (μM) ** : concentration at 50% cell damage with respect to MT-4 cells” value of the first is 1.9-fold higher: 49.2 µM for the first, 25.49 µM for the second.

`Cc1nc2c(c(C)c(C)n2C)c(-c2ccc(Cl)cc2)c1[C@@H](OC(C)(C)C)C(=O)O` [Example 27, (R)-2-tert-butoxy-2-(4-(4-chlorophenyl)-1,2,3,6-tetramethyl-1H-pyrrolo[2,3-b]pyridin-5-yl)acetic acid] and `C=CCn1c(C)c(C)c2c(-c3ccc(Cl)cc3)c(C(OC(C)(C)C)C(=O)O)c(C)nc21` (stereo not shown) [Example 3, 2-(1-Allyl-4-(4-chlorophenyl)-2,3,6-trimethyl-1H-pyrrolo[2,3-b]pyridin-5-yl)-2-tert-butoxyacetic acid] are within 1.5-fold of each other in “CC60 (μM) ** : concentration at 50% cell damage with respect to MT-4 cells” value: 29 µM for the first, 26.19 µM for the second.

`Cc1nc2c(c(C)c(C)n2Cc2ccnc(F)c2)c(-c2ccc(Cl)cc2)c1[C@H](OC(C)(C)C)C(=O)O` [Example 66, (S)-2-(Tert-butoxy)-2-(4-(4-chlorophenyl)-1-((2-fluoropyridin-4-yl)methyl)-2,3,6-trimethyl-1H-pyrrolo[2,3-b]pyridin-5-yl)acetic acid] and `Cc1nc2c(c(C)c(C)n2Cc2ccc(F)nc2)c(-c2ccc(Cl)cc2)c1[C@H](OC(C)(C)C)C(=O)O` [Example 67, (S)-2-(Tert-butoxy)-2-(4-(4-chlorophenyl)-1-((6-fluoropyridin-3-yl)methyl)-2,3,6-trimethyl-1H-pyrrolo[2,3-b]pyridin-5-yl)acetic acid] are within 1.5-fold of each other in “CC60 (μM) ** : concentration at 50% cell damage with respect to MT-4 cells” value: 14.55 µM for the first, 13.65 µM for the second.

Compared with `Cc1nc2c(c(C)c(C)n2Cc2cnccn2)c(-c2ccc(Cl)cc2)c1[C@H](OC(C)(C)C)C(=O)O` [Example 77, (S)-2-(Tert-butoxy)-2-(4-(4-chlorophenyl)-2,3,6-trimethyl-1-(pyrazin-2-ylmethyl)-1H-pyrrolo[2,3-b]pyridin-5-yl)acetic acid], `Cc1nc2c(c(C)c(C)n2Cc2ccccc2)c(-c2ccc(Cl)cc2)c1C(OC(C)(C)C)C(=O)O` (stereo not shown) [Example 5, 2-(1-Benzyl-4-(4-chlorophenyl)-2,3,6-trimethyl-1H-pyrrolo[2,3-b]pyridin-5-yl)-2-tert-butoxyacetic acid] is 2.3-fold lower in “CC60 (μM) ** : concentration at 50% cell damage with respect to MT-4 cells” value: 38.86 µM for the first, 17 µM for the second.

First: CCn1c(C)c(C)c2c(-c3ccc(C#N)cc3)c(C(OC(C)(C)C)C(=O)O)c(C)nc21 (stereo not shown) [Example 40, 2-Tert-butoxy-2-(4-(4-cyanophenyl)-1-ethyl-2,3,6-trimethyl-1H-pyrrolo[2,3-b]pyridin-5-yl)acetic acid]
Second: CCn1c(C)c(C)c2c(-c3ccccc3)c(C(OC(C)(C)C)C(=O)O)c(C)nc21 (stereo not shown) [Example 37, 2-Tert-butoxy-2-(1-ethyl-2,3,6-trimethyl-4-phenyl-1H-pyrrolo[2,3-b]pyridin-5-yl)acetic acid]
The “CC60 (μM) ** : concentration at 50% cell damage with respect to MT-4 cells” value of the first is 5.4-fold higher: 91.58 µM for the first, 17 µM for the second.

First: Cc1nc2c(ccn2C)c(-c2ccc(Cl)cc2)c1[C@H](OC(C)(C)C)C(=O)O [Example 34, (S)-2-Tert-butoxy-2-(4-(4-chlorophenyl)-1,6-dimethyl-1H-pyrrolo[2,3-b]pyridin-5-yl)acetic acid]
Second: Cc1nc2c(c(C)c(C)n2Cc2ccc(F)cc2)c(-c2ccc(Cl)cc2)c1C(OC(C)(C)C)C(=O)O (stereo not shown) [Example 8, 2-Tert-butoxy-2-(4-(4-chlorophenyl)-1-(4-fluorobenzyl)-2,3,6-trimethyl-1H-pyrrolo[2,3-b]pyridin-5-yl)acetic acid]
The “CC60 (μM) ** : concentration at 50% cell damage with respect to MT-4 cells” value of the first is 6.1-fold higher: 78 µM for the first, 12.8 µM for the second.

For `Cc1nc2c(c(C)c(C)n2Cc2cccc(C#N)c2)c(-c2ccc(Cl)cc2)c1[C@H](OC(C)(C)C)C(=O)O` [Example 61, (S)-2-(Tert-butoxy)-2-(4-(4-chlorophenyl)-1-(3-cyanobenzyl)-2,3,6-trimethyl-1H-pyrrolo[2,3-b]pyridin-5-yl)acetic acid], the “CC60 (μM) ** : concentration at 50% cell damage with respect to MT-4 cells” value was 9.43 µM.

With `CCn1c(C)c(C)c2c(-c3ccc(Cl)cc3)c(C(OC(C)(C)C)C(=O)O)c(C)nc21` (stereo not shown) [Example 2, 2-Tert-butoxy-2-(4-(4-chlorophenyl)-1-ethyl-2,3,6-trimethyl-1H-pyrrolo[2,3-b]pyridin-5-yl)acetic acid] the “CC60 (μM) ** : concentration at 50% cell damage with respect to MT-4 cells” value was greater than 233 µM.

Source: US9499537B2, “Antiviral pyrrolopyridine derivatives and method for preparing the same” (KOREA RESEARCH INSTITUTE OF CHEMICAL TECHNOLOGY, priority 2011, dated 2016)
